Calls of active or inactive are those of the source.
Key:
[1] = target: Cyclin-dependent kinase 9 (Homo sapiens, UniProt P50750); type: functional;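 also: value from the CDK9 entry of a kinome-spanning kinase panel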
[2] = target: Macrophage colony-stimulating factor 1 receptor (Homo sapiens, UniProt P07333); type: functional;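 also: value comes from the Navigating the Kinome screening panel, CSF1R member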
[3] = target: Serine/threonine-protein kinase PLK3 (Homo sapiens, UniProt Q9H4B4); type: functional
[4] = target: Leukocyte tyrosine kinase receptor (Homo sapiens, UniProt P29376); assay: Navigating the Kinome. Panel member name: LTK; type: functional
[5] = target: Serine/threonine-protein kinase PLK1 (Homo sapiens, UniProt P53350); type: functional;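 also: PLK1 measured as one member of a kinome-wide profiling panel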
[6] = target: Platelet-derived growth factor receptor alpha (Homo sapiens, UniProt P16234); assay: Navigating the Kinome. Panel member name: PDGFRA; type: functional
[7] = target: cAMP-dependent protein kinase catalytic subunit alpha (Homo sapiens, UniProt P17612); type: functional
[8] = target: Cyclin-dependent kinase 8 (Homo sapiens, UniProt P49336); assay: Navigating the Kinome. Panel member name: CDK8; type: functional
[9] = target: RAC-gamma serine/threonine-protein kinase (Homo sapiens, UniProt Q9Y243); type: functional
[10] = target: Vascular endothelial growth factor receptor 2 (Homo sapiens, UniProt P35968); type: functional
Aurora kinase A = Aurora kinase A (Homo sapiens, UniProt O14965); type: functional;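 also: value from the Navigating the Kinome kinase panel profiling, panel entry STK6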
[11] = target: Platelet-derived growth factor receptor beta (Homo sapiens, UniProt P09619); type: functional;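 also: value comes from a kinome panel, with PDGFRB tested as one panel member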
[12] = target: Serine/threonine-protein kinase D3 (Homo sapiens, UniProt O94806); type: functional;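 also: determined within a kinase panel screen, with PRKCN as the panel member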
Activated CDC42 kinase 1 = Activated CDC42 kinase 1 (Homo sapiens, UniProt Q07912); assay: Navigating the Kinome. Panel member name: ACK1; type: functional
Activin receptor type-1 = Activin receptor type-1 (Homo sapiens, UniProt Q04771); assay: Navigating the Kinome. Panel member name: ACVR1; type: functional
LIM domain kinase 1 = LIM domain kinase 1 (Homo sapiens, UniProt P53667); assay: Navigating the Kinome. Panel member name: LIMK1; type: functional
[13] = target: Serine/threonine-protein kinase Nek2 (Homo sapiens, UniProt P51955); type: functional
[14] = target: Fibroblast growth factor receptor 1 (Homo sapiens, UniProt P11362); type: functional
[15] = target: Calcium/calmodulin-dependent protein kinase type II subunit alpha (Homo sapiens, UniProt Q9UQM7); assay: Navigating the Kinome. Panel member name: CAMK2A; type: functional
[16] = target: Inhibitor of nuclear factor kappa-B kinase subunit epsilon (Homo sapiens, UniProt Q14164); assay: Navigating the Kinome. Panel member name: IKBKE; type: functional
[17] = target: Serine/threonine-protein kinase pim-3 (Homo sapiens, UniProt Q86V86); type: functional;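 also: value obtained as one member of a broad kinase panel profiling effort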
[18] = target: Death-associated protein kinase 3 (Homo sapiens, UniProt O43293); type: functional;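 also: measured as one member of a kinome-wide profiling panel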
[19] = target: Mitogen-activated protein kinase 8 (Homo sapiens, UniProt P45983); type: functional;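 also: value comes from one member of a kinome-wide kinase profiling panel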
[20] = target: Dual specificity protein kinase CLK4 (Homo sapiens, UniProt Q9HAZ1); type: functional
[21] = target: RAC-alpha serine/threonine-protein kinase (Homo sapiens, UniProt P31749); type: functional;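 also: AKT1 affinity measured as one member of a kinome-wide kinase profiling panel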
[22] = target: 5'-AMP-activated protein kinase catalytic subunit alpha-1 (Homo sapiens, UniProt Q13131); type: functional
[23] = target: Dual specificity protein kinase CLK2 (Homo sapiens, UniProt P49760); type: functional
[24] = target: Dual specificity tyrosine-phosphorylation-regulated kinase 1B (Homo sapiens, UniProt Q9Y463); assay: Navigating the Kinome. Panel member name: DYRK1B; type: functional
[25] = target: cAMP-dependent protein kinase catalytic subunit PRKX (Homo sapiens, UniProt P51817); type: functional
[26] = target: Leucine-rich repeat serine/threonine-protein kinase 2 (Homo sapiens, UniProt Q5S007); type: functional;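 also: value from a broad kinome-wide panel profiling study in which LRRK2 was one of the kinases tested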
Aurora kinase B = Aurora kinase B (Homo sapiens, UniProt Q96GD4); type: functional
[27] = target: Cyclin-dependent kinase 7 (Homo sapiens, UniProt P50613); type: functional;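 also: value comes from a kinome-wide kinase profiling panel in which CDK7 is one member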
[28] = target: Tyrosine-protein kinase receptor TYRO3 (Homo sapiens, UniProt Q06418); type: functional;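 also: TYRO3 value obtained as one member of a kinome-wide profiling panel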
[29] = target: Serine/threonine-protein kinase pim-1 (Homo sapiens, UniProt P11309); type: functional
[30] = target: Mitogen-activated protein kinase kinase kinase kinase 4 (Homo sapiens, UniProt O95819); type: functional
[31] = target: Dual specificity tyrosine-phosphorylation-regulated kinase 1A (Homo sapiens, UniProt Q13627); type: functional;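 also: measured against DYRK1A as one member of a broad kinome profiling panel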
[32] = target: High affinity nerve growth factor receptor (Homo sapiens, UniProt P04629); type: functional;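 also: NTRK1 tested as one member of a kinome-wide profiling panel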
[33] = target: Protein kinase C theta type (Homo sapiens, UniProt Q04759); assay: Navigating the Kinome. Panel member name: PRKCQ; type: functional
[34] = target: Rho-associated protein kinase 1 (Homo sapiens, UniProt Q13464); type: functional;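 also: measured within a broad kinome-wide panel profiling many kinases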
[35] = target: Peroxisome proliferator-activated receptor gamma/Nuclear receptor corepressor 2 (Homo sapiens, UniProt P37231+Q9Y618); assay: Counterscreen for NR2E3 inverse agonists: TR-FRET-based biochemical high throughput dose response assay to identify inverse agonists of the interaction between peroxisome proliferator-activated receptor gamma (PPARg) and nuclear receptor co-repressor 2 (NCOR2).; type: functional
[36] = target: T1, Apoptotic protease-activating factor 1 (Homo sapiens, UniProt O14727); type: functional
T1 sequence (O14727 whole entry): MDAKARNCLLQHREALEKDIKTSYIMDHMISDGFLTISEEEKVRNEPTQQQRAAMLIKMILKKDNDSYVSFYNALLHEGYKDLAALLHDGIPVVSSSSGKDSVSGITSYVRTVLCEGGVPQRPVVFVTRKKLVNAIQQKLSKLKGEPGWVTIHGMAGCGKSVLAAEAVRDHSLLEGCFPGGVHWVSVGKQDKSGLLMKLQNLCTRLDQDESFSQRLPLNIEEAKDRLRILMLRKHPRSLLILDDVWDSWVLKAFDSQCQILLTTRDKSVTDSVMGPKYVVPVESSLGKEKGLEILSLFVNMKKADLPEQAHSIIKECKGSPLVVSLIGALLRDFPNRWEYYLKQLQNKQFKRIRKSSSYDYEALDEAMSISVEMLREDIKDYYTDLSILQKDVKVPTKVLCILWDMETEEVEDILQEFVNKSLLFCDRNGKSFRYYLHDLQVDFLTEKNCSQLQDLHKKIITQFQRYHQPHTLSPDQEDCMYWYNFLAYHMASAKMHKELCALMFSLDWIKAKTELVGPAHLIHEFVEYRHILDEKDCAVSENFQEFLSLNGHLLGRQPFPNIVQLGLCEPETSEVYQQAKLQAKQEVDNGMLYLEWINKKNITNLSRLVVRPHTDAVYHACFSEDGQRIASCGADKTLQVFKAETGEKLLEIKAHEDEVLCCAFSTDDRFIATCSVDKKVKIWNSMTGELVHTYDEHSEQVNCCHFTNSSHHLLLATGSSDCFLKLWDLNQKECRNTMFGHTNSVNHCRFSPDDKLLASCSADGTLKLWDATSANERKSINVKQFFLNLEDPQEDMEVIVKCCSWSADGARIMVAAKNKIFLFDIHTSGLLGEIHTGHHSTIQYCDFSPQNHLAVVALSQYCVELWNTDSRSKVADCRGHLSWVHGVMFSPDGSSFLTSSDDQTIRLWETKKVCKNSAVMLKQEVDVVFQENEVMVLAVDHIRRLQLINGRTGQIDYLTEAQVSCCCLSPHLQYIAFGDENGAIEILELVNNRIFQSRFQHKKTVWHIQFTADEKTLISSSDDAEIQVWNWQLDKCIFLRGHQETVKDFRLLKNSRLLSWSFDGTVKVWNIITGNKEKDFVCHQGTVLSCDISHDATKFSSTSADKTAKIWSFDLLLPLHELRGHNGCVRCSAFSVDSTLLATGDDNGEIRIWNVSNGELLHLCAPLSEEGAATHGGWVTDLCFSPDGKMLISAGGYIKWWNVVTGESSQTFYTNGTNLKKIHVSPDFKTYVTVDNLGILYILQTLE

[37] = target: Photoreceptor-specific nuclear receptor (Homo sapiens, UniProt Q9Y5X4); assay: NR2E3 inverse agonists, dose response, biochemical, TR-FRET (AID 463256); type: functional
Estrogen receptor beta [38] = target: T2, Estrogen receptor beta (Homo sapiens, UniProt Q92731); assay: ERβ–SRC-3 coactivator interaction inhibitors, confirmation, orthogonal assay, biochemical, ELISA, streptavidin-HRP readout (AID 1060)
[39] = target: Protein-tyrosine kinase 2-beta (Homo sapiens, UniProt Q14289);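 also: potency of inhibitors of PYK2 kinase phosphorylation of poly-GT substrate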
[40] = target: Mothers against decapentaplegic homolog 3 (Homo sapiens, UniProt P84022); assay: SMAD3 transcription factor inhibitors, dose response (AID 715); type: functional
[41] = target: T1, Apoptotic protease-activating factor 1; assay: SAR analysis of small molecule inhibitors of Apaf-1 in a Fluorescent assay.; type: functional; settings: read-out: IC50_Mean
[42] = HEK293T cell cytotoxicity, dose response, cytotoxicity control for HIV Vif inhibitor project, cherry-picks (AID 652208); type: functional, cell-based
[43] = inhibitors of firefly luciferase expression or activity, dose response, H4 neuroglioma cells, luminescence (AID 1990); type: functional, cell-based
Estrogen receptor beta [44] = target: T2, Estrogen receptor beta
HEK293 [45] = assay: cells; settings: Homo sapiens
[46] = Luminescence Cell-Based Dose Response HTS to Identify Inhibitors of 5'UTR Stem-Loop Driven Prion Protein mRNA Translation in H4 Neuroglioblastoma Cells. [Related pubchem assays: 1827 (Project Summary), 1813 (Primary HTS)]; type: functional
[47] = inhibitors of SNCA 5'UTR-driven reporter translation, confirmation, H4 neuroglioma cells, luminescence (AID 1988); type: functional, cell-based
HEK293 [48] = assay: cells; settings: Homo sapiens; remark: listed apart in the source
[49] = target: Cyclin-dependent kinase 19 (Homo sapiens, UniProt Q9BWU1); assay: Navigating the Kinome. Panel member name: CDC2L6; type: functional
[50] = target: Receptor-type tyrosine-protein kinase FLT3 (Homo sapiens, UniProt P36888); type: functional;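 also: FLT3 was tested as one member of a kinome-wide kinase panel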
[51] = target: Hepatocyte growth factor receptor (Homo sapiens, UniProt P08581); type: functional;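 also: kinase panel profiling across the kinome, with MET as the panel member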
[52] = target: ALK tyrosine kinase receptor (Homo sapiens, UniProt Q9UM73); type: functional;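 also: ALK tested as one member of a kinase panel screen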
[53] = target: Glycogen synthase kinase-3 beta (Homo sapiens, UniProt P49841); type: functional;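 also: value comes from a broad kinome profiling panel, with GSK3B as the panel member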

Chain of Mitogen-activated protein kinase 8 (P45983 whole entry): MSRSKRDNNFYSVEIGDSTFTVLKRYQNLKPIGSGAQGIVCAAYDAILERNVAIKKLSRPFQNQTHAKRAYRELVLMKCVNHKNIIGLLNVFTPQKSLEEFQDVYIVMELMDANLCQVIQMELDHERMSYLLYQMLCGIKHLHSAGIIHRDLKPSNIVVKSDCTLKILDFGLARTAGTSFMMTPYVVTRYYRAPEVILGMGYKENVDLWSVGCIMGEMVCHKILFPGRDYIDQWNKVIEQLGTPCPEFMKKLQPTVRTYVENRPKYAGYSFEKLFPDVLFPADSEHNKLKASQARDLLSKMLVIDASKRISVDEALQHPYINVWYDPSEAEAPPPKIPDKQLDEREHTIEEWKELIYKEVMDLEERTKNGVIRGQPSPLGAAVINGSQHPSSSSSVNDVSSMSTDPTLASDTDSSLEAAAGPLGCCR
Chain of High affinity nerve growth factor receptor (P04629 whole entry): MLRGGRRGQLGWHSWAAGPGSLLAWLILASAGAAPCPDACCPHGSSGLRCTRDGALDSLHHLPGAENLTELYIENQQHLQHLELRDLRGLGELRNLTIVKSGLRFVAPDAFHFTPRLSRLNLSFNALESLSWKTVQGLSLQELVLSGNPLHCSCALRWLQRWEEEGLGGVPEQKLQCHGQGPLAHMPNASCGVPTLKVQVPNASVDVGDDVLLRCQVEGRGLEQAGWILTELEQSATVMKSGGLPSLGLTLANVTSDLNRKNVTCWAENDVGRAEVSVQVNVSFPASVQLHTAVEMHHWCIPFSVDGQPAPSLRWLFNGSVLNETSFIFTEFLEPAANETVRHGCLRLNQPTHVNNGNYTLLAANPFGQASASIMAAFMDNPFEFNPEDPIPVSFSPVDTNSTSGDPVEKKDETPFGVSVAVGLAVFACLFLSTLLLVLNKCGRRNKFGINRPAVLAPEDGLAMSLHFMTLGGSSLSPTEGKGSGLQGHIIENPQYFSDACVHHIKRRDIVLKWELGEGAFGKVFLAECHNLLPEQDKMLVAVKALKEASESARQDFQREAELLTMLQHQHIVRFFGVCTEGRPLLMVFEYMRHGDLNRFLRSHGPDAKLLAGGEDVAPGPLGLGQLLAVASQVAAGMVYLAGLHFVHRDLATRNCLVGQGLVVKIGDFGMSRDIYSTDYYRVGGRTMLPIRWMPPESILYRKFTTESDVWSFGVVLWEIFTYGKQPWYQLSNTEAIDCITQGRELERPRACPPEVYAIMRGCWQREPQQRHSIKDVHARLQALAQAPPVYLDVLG
Chain of Fibroblast growth factor receptor 1 (P11362 whole entry): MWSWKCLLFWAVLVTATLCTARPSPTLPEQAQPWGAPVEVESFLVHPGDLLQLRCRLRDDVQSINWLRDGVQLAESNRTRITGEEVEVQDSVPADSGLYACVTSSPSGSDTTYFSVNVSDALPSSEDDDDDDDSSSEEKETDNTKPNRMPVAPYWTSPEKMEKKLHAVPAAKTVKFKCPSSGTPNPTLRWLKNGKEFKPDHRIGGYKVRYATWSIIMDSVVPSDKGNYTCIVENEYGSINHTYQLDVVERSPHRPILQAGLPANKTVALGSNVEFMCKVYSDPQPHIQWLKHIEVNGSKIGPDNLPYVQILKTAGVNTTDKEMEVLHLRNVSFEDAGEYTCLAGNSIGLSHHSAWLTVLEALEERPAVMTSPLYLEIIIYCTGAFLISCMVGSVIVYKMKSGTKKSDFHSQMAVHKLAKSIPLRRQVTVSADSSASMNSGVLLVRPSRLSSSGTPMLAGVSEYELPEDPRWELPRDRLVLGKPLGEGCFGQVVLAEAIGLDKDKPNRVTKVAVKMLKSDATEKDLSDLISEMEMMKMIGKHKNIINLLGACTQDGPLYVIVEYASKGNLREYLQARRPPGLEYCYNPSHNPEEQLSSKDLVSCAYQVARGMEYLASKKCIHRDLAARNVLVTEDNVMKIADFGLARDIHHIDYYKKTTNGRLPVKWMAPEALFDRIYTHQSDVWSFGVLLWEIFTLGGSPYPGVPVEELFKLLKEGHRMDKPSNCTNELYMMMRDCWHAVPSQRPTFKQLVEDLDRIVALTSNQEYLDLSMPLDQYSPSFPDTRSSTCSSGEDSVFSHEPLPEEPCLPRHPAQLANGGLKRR
T2 sequence (Q92731 whole entry): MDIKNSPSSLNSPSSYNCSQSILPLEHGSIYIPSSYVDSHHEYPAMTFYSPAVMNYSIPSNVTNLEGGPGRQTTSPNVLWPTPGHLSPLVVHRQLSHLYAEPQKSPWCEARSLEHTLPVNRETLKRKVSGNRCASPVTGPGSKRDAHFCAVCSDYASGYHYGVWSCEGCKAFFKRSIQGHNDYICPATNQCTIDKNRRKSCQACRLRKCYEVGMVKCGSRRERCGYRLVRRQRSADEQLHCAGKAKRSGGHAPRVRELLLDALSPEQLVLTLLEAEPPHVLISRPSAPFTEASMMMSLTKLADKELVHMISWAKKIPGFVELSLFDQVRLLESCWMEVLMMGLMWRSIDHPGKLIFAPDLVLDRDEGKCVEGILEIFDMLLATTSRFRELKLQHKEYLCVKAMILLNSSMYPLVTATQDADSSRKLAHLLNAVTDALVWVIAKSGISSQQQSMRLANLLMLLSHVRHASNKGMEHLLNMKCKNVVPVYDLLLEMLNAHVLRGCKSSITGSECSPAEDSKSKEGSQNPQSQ
Chain of Dual specificity tyrosine-phosphorylation-regulated kinase 1B (Q9Y463 whole entry): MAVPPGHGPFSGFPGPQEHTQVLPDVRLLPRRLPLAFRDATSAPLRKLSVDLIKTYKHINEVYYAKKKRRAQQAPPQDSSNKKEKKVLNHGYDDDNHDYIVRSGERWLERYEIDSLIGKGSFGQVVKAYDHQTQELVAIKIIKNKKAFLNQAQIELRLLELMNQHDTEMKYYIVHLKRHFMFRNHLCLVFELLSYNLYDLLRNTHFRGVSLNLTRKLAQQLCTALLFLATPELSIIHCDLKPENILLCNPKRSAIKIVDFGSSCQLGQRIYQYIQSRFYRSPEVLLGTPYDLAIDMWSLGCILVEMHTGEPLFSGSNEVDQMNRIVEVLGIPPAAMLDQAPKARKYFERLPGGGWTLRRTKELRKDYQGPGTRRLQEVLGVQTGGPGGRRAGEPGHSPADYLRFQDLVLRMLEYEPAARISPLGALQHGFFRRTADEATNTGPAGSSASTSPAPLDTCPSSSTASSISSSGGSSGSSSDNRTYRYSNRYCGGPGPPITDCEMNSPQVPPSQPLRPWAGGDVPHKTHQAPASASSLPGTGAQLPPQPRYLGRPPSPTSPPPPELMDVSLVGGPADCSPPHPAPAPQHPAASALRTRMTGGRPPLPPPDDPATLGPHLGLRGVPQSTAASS
Chain of Serine/threonine-protein kinase pim-1 (P11309 whole entry): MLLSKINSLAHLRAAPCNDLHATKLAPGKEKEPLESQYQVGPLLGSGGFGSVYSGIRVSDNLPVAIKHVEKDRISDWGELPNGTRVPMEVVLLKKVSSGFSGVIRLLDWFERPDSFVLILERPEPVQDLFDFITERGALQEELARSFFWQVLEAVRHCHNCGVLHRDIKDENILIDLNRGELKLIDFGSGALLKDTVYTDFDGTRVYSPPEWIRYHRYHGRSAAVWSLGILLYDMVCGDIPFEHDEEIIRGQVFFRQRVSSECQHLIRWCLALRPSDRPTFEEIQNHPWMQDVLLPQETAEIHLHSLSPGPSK
Chain of Tyrosine-protein kinase receptor TYRO3 (Q06418 whole entry): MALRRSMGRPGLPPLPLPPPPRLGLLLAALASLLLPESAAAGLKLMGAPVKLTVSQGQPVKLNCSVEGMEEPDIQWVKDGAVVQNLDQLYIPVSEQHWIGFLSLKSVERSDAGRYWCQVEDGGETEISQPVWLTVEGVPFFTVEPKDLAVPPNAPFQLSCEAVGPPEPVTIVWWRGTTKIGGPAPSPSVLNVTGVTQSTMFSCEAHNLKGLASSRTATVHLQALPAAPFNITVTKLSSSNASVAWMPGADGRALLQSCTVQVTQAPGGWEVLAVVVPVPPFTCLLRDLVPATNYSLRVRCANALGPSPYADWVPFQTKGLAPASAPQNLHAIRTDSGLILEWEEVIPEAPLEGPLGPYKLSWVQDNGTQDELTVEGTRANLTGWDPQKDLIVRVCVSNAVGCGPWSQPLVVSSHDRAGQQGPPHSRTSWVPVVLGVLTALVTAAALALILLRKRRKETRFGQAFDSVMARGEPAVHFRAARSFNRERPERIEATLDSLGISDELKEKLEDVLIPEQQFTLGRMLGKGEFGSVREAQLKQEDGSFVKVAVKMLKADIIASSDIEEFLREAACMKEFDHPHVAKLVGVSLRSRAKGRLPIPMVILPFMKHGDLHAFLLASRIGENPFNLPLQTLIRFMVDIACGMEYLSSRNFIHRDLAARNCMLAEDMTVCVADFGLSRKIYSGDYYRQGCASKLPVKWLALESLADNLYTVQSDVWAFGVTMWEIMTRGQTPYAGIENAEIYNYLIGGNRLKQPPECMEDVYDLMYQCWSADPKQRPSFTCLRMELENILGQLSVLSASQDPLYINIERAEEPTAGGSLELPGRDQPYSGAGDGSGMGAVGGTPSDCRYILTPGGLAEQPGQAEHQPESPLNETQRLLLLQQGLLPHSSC

Nc1n[nH]c2nc(Cl)sc12
Ki [1]: 12.6 µM (active) | Ki [2]: > 63.1 µM (inactive) | Ki [3]: > 79.4 µM (inactive) | Ki [4]: 15.8 µM (active) | Ki [5]: > 79.4 µM (inactive) | Ki [6]: 50.1 µM (active) | Ki [7]: 31.6 µM (active) | Ki [8]: 15.8 µM (active) | Ki [9]: > 100 µM (inactive) | Ki [10]: > 100 µM (inactive) | Ki (Aurora kinase A): 25.1 µM (active) | Ki [11]: > 79.4 µM (inactive) | Ki [12]: 63.1 µM (active) | Ki (Activated CDC42 kinase 1): 79.4 µM (active) | Ki (Activin receptor type-1): 6.31 µM (active) | Ki (LIM domain kinase 1): 12.6 µM (active) | Ki [13]: 20 µM (active) | Ki [14]: > 63.1 µM (inactive) | Ki [15]: 63.1 µM (active) | Ki [16]: 39.8 µM (active) | Ki [17]: 39.8 µM (active) | Ki [18]: 31.6 µM (active) | Ki [19]: 63.1 µM (active) | Ki [20]: 5.01 µM (active) | Ki [21]: > 79.4 µM (inactive) | Ki [22]: 39.8 µM (active) | Ki [23]: 39.8 µM (active) | Ki [24]: 15.8 µM (active) | Ki [25]: 50.1 µM (active) | Ki [26]: 15.8 µM (active) | Ki (Aurora kinase B): 50.1 µM (active) | Ki [27]: 39.8 µM (active) | Ki [28]: 50.1 µM (active) | Ki [29]: > 63.1 µM (inactive) | Ki [30]: 50.1 µM (active) | Ki [31]: 6.31 µM (active) | Ki [32]: 25.1 µM (active) | Ki [33]: 79.4 µM (active) | Ki [34]: 39.8 µM (active)

O=C(Nc1ccc(-c2nc3cc(NC(=O)c4cccs4)ccc3[nH]2)cc1)c1cccs1
IC50 [35]: 10.5 µM (not active) | IC50 [36]: 8.21 µM (active) | IC50 [37]: 9.36 µM (active) | IC50 (Estrogen receptor beta [38]): > 109 µM (not active) | IC50 [39]: 3.97 µM (active) | IC50 [40]: 64.4 µM (not active) | IC50 [41]: 8.37 µM (active) | AC50 [42]: 23.1 µM (active) | EC50 [43]: 0.225 µM (active) | IC50 (Estrogen receptor beta [44]): 2.61 µM (active) | EC50 (HEK293 [45]): > 59.6 µM (inactive) | EC50 [46]: 40.1 µM (active) | EC50 [47]: 0.275 µM (active) | EC50 (HEK293 [48]): > 59.6 µM (inactive)

CS(=O)(=O)c1cccc(-c2cnn3c(C(N)=O)cc(-c4ccccc4)nc23)c1
Ki [49]: > 100 µM (inactive) | Ki [50]: 2.51 µM (active) | Ki [51]: 2.51 µM (active) | Ki [14]: 2 µM (active) | Ki [52]: 5.01 µM (active) | Ki [19]: 3.98 µM (active) | Ki [53]: 1.26 µM (active) | Ki [24]: 2 µM (active) | Ki [29]: 3.98 µM (active) | Ki [32]: 2 µM (active)

Source: ChEMBL document CHEMBL1201862, “PubChem BioAssay data set” (2004)
